From PubChem BioAssay (NCI)
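GI50 is the concentration that inhibits growth by half. Definition used: TGI = concentration required for complete inhibition of growth.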

Key:
Assay in all cases: NCI-60 cell line screen, 384-well format
LOX IMVI melanoma = system: LOX IMVI melanoma
BT-549 breast = system: BT-549 breast
HCT-116 colon = system: HCT-116 colon
TK-10 renal = system: TK-10 renal
PC-3 prostate = system: PC-3 prostate
CCRF-CEM leukemia = system: CCRF-CEM leukemia
K-562 leukemia = system: K-562 leukemia
SR leukemia = system: SR leukemia
HOP-92 NSCLC = system: HOP-92 NSCLC
SF-268 CNS = system: SF-268 CNS
RXF 393 renal = system: RXF 393 renal
NCI-H460 NSCLC = system: NCI-H460 NSCLC
OVCAR-4 ovarian = system: OVCAR-4 ovarian
KM12 colon = system: KM12 colon
NCI-H226 lung = system: NCI-H226 lung
SK-MEL-28 melanoma = system: SK-MEL-28 melanoma
MDA-MB-468 breast = system: MDA-MB-468 breast
SF-539 CNS = system: SF-539 CNS
U251 glioblastoma = system: U251 glioblastoma
CAKI-1 renal = system: CAKI-1 renal
MDA-MB-231 breast = system: MDA-MB-231 breast
SW-620 colon = system: SW-620 colon
OVCAR-3 ovarian = system: OVCAR-3 ovarian
A549 NSCLC = system: A549 NSCLC
SK-MEL-2 melanoma = system: SK-MEL-2 melanoma
SF-295 CNS = system: SF-295 CNS
NCI/ADR-RES ovarian = system: NCI/ADR-RES ovarian
ACHN renal = system: ACHN renal
OVCAR-8 ovarian = system: OVCAR-8 ovarian

Cc1cc(C(=O)NC(C)(C)C)cc(C#Cc2ccc3c4c(oc3c2)C(C)(C)c2cc(NS(C)(=O)=O)ccc2C4=O)n1
GI50 (LOX IMVI melanoma): 3200 nM | TGI (LOX IMVI melanoma): 7420 nM | GI50 (BT-549 breast): 1150 nM | TGI (BT-549 breast): 4820 nM | GI50 (HCT-116 colon): 1020 nM | TGI (HCT-116 colon): > 100000 nM | GI50 (TK-10 renal): 1800 nM | TGI (TK-10 renal): 29200 nM | GI50 (PC-3 prostate): 2470 nM | TGI (PC-3 prostate): 9210 nM | GI50 (CCRF-CEM leukemia): 1260 nM | TGI (CCRF-CEM leukemia): 2830 nM | GI50 (K-562 leukemia): 1310 nM | TGI (K-562 leukemia): > 100000 nM | GI50 (SR leukemia): 198 nM | TGI (SR leukemia): 420 nM | GI50 (HOP-92 NSCLC): 198 nM | TGI (HOP-92 NSCLC): 980 nM | GI50 (SF-268 CNS): 2170 nM | TGI (SF-268 CNS): > 100000 nM | GI50 (RXF 393 renal): 188 nM | TGI (RXF 393 renal): 410 nM | GI50 (NCI-H460 NSCLC): 1180 nM | TGI (NCI-H460 NSCLC): 3020 nM | GI50 (OVCAR-4 ovarian): 1340 nM | TGI (OVCAR-4 ovarian): 6330 nM | TGI (KM12 colon): 1020 nM | GI50 (NCI-H226 lung): 1310 nM | TGI (NCI-H226 lung): 5410 nM | GI50 (SK-MEL-28 melanoma): 971 nM | TGI (SK-MEL-28 melanoma): 5510 nM | GI50 (MDA-MB-468 breast): 985 nM | TGI (MDA-MB-468 breast): 2850 nM | GI50 (SF-539 CNS): 1160 nM | TGI (SF-539 CNS): 5930 nM | GI50 (U251 glioblastoma): 1890 nM | TGI (U251 glioblastoma): > 100000 nM | GI50 (CAKI-1 renal): 549 nM | TGI (CAKI-1 renal): 4110 nM | GI50 (MDA-MB-231 breast): 3450 nM | TGI (MDA-MB-231 breast): > 100000 nM | GI50 (SW-620 colon): 1260 nM | TGI (SW-620 colon): 3540 nM | GI50 (OVCAR-3 ovarian): 1460 nM | TGI (OVCAR-3 ovarian): 4420 nM | GI50 (A549 NSCLC): 2270 nM | TGI (A549 NSCLC): > 100000 nM | GI50 (SK-MEL-2 melanoma): 496 nM | TGI (SK-MEL-2 melanoma): 3100 nM | GI50 (SF-295 CNS): 1330 nM | TGI (SF-295 CNS): 3880 nM | GI50 (NCI/ADR-RES ovarian): 1590 nM | TGI (NCI/ADR-RES ovarian): 4170 nM | GI50 (ACHN renal): 815 nM | TGI (ACHN renal): 8300 nM | GI50 (OVCAR-8 ovarian): 1810 nM | TGI (OVCAR-8 ovarian): 6230 nM
